Like-named read-outs stand apart in the source and are kept apart here.
Legend:
[1] = biological target: T1, AChE (type VI-S, from electric eel) (Electrophorus electricus, UniProt O42275); assay: AChE inhibition, adaptation of Ellman's method; format: biochemical; details: means of three independent experiments ± SD, read-out: TcAChE Inhibition IC50
T1 construct: purchased type VI-S
Experimental: The inhibition of AChE by the DNP-BIM hybrids herein studied was assayed by using a variation of Ellman´s test and the IC50 values obtained are included in Table 2. […]. An adaptation of the Ellman´s method, previously described, was used to measure the acetylcholinesterase inhibitory activity. The assay solution contained 374 µL of 4-(2-hydroxyethyl)-1-piperazineethanesulfonic acid (HEPES) buffer (50 mM, pH 8.0), 476 µL of 5,5’-dithiobis-(2-nitrobenzoic acid) (DTNB, 3 mM), a variable volume (10–50 µL) of the stock solution of each compound in methanol (1 mg/mL), 25 µL of AChE (type VI-S, from electric eel) stock solution, and the necessary amount of methanol to obtain 0.925 mL of sample mixture in a 1 mL cuvette. The samples were incubated for 15 min and then 75 µL of acetylthiocholine iodide (AChI) solution (16 mM) was added. The reaction was monitored for 5 min at 405 nm. Assays were run with a blank containing all the components except AChE, which was replaced by HEPES buffer. The rates of the reaction were calculated as well as the enzyme activity. A control reaction was carried out using methanol as a sample solution and it was considered as 100% activity.
The inhibition curves were obtained by plotting the percentage of enzymatic inhibition versus inhibitor concentration and a calibration curve was got from which the linear regression parameters were obtained.

Aβ1–42 = Aβ1–42 (Homo sapiens, UniProt P05067); assay: Inhibition of self-mediated Aβ1–42 aggregation (thioflavin T fluorescence); format: biochemical; details: Aβ1–42 40 μM, 24 h, 37 °C, read-out: Aβ1–42 Aggregation Inhibition, Self-Induced; for inhibition at 40 µM: inhibitor 40 µM
Sequence of Aβ1–42 (P05067 672-713): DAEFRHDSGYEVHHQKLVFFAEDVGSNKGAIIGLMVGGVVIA
Experimental: (§1) The anti-amyloidogenic capacity of the compounds was also evaluated in vitro, in the absence and presence of Cu(II), based on the measurement of the fluorescence emission of Thioflavin T (ThT), a stain known by its Aβ fibril binding capacity. This binding interaction can be analyzed by fluorimetry, since the presence of ThT-fibrils increases the absorbance and the emission of the ThT dye, and it also induces red shifts on the absorbance (from 385 to 446 nm) and emission peaks (from 445 to 485 nm). All the measurements were performed after incubation (24 h, 37 °C) of the self-mediated and Cu^2+-induced Aβ aggregates in the presence/absence of the compounds under evaluation.
(§2) Herein, due to solubility problems of some compounds in the phosphate buffer (0.215 M, pH 8.0) of the working medium, the assays were carried out in the presence of 40 μM concentration of inhibitor and 20 μM in the case of compound 4, instead of 80 μM as previously reported. […] The activity dependence on ligand structural features may be mainly explained by the different ability for intercalation into the fibrils, as already assumed for other inhibitors. […] The data obtained for compounds 6 and 7 indicate that the presence of R1 = F, -NO2 substituents in the BIM have some small positive effect on the inhibition of Aβ aggregation.
(§3) The Aβ peptide was treated with 1,1,1,3,3,3-hexafluoropropan-2-ol (HFIP) and dissolved in a CH3CN/Na2CO3 (300 μM)/NaOH (250 μM) (48.3:48.3:4.3, v/v/v) mixture in order to have a stable stock solution, avoiding self-aggregation of Aβ1–42. Then, the prepared 500 μM solution was diluted at 40 μM in phosphate buffer (0.215 M, pH 8.0).
(§4) The solutions of the tested compounds were prepared in MeOH (1 mg/mL), being further diluted in phosphate buffer to a concentration of 480 μM. For copper-induced aggregation studies, a solution of CuCl2 240 μM was prepared from a stock standard solution (0.015 M). To perform the assays for the Aβ1–42 aggregation inhibition, a reported method, based on the fluorescence emission of thioflavin T (ThT), was followed. Aβ1–42 (40 μM) was incubated at 37 °C, for 24 h with or without Cu(II) (40 μM) in a phosphate buffer in presence or absence of the single ligand (40 μM and 20 μM for compound 4). Then, the samples were added to a 96-well plate with […] of 5 μM ThT in 50 mM glycine-NaOH (pH 8.5) buffer. Blank samples were prepared without the peptide for each concentration. The ThT fluorescence was measured at 446 nm (excitation) and 485 nm (emission). The inhibition percentage of aggregation was calculated by Equation (2), in which IFi and IF0 corresponded to the fluorescence intensities, in the presence and in the absence of the tested compound, subtracted of the fluorescence intensities due to the respective blanks.
(§5) The reported values were obtained as the mean ± SEM of duplicate of three different experiments.

Aβ1–42 with Cu(II) = Aβ1–42 with Cu(II) (Homo sapiens, UniProt P05067); assay: Inhibition of Cu-induced Aβ1–42 aggregation (thioflavin T fluorescence); format: biochemical; details: copper 40 µM, Aβ1–42 40 μM, 24 h, 37 °C; for inhibition at 40 µM: inhibitor 40 µM
Sequence of Aβ1–42 with Cu(II) (P05067 672-713): as above
Experimental: as §1, §2, §3, §4, §5

[2] = cited from earlier work
[3] = Cu(II) chelation by potentiometry; format: physicochemical; details: for pH at which metal complexation starts, Cu(II): formation of MHL species, CL = 6.7 × 10^−4 M, 1:2 M(II)/L; for pCu (pM = −log[M]): pH 7.4, CL/CM = 10, CM = 10^−6 M; for Kd: pH 7.4, read-out: conditional dissociation constant (K´d) for the copper complex
Description: (§6) The metal chelating ability of hybrids 7 and 12, due to the BIM bidentate unity with (N,O) coordination mode, was studied by potentiometry. Figure 3A,B show a change in the deprotonation profile of the ligand titration curves due to the presence of the metal ions. In fact, the curves for the Cu(II)/L systems lie well below that of the ligand, while for the Zn(II)/L systems stay under for a > −1 (compound 7) or a > 0 (compound 12), thus supporting the formation of 1:1 and 1:2 M/L ratio complexes with the deprotonated and mono-protonated forms of the ligand and with relative metal dependent stability order (Cu > Zn). Table 1 contains the equilibrium models obtained from the fitting analysis of the potentiometric curves by program Hyperquad. In these equilibrium models, which the coordination core of the compounds integrates the bidentate (N,O) BIM moiety, MHL and MH2L2 correspond to species with the ligand containing one protonated nitrogen atom at the piperazine moiety, ML and ML2 correspond to complexes involving the completely deprotonated form of the ligand while MH-1L2 are mixed ligand-hydroxo metal complexes.
(§7) Solutions: the aqueous copper (CuCl2, 0.015 M) and zinc (ZnCl2, 0.0156 M) stock solutions for potentiometric equilibrium studies were prepared from 1000 ppm standards (Titrisol) and their metal content was evaluated by atomic absorption. The titrant solution (0.1 M KOH) was obtained from a carbonate-free commercial concentrate (Titrisol) and standardized by potentiometric titration with potassium hydrogen phthalate. The titrant solution was discarded whenever the percentage of carbonate (Gran’s method) was about 0.5% of the total amount of base.
(§8) Measurements: compounds 7 and 12 were titrated in 50% (w/w) DMSO/H2O medium, at T = 25.0 ± 0.1 °C and ionic strength (I) 0.1 M KCl, using 0.1 M KOH as titrant. Both glass and Ag/AgCl reference electrodes were previously conditioned in DMSO/H2O mixtures with increasing amounts of DMSO and the response of the glass electrode was controlled by strong acid–strong base (HCl/KOH) calibrations with the determination of the Nernst parameters by Gran’s method. […] All titrations were performed in duplicate and under the stated experimental conditions the pKw value (13.6) was determined and subsequently used in the computations. The stepwise protonation constant of the ligand, Ki = [HiL]/([Hi–1L][H]), and the overall metal–complex stability constants, βMmHhLl = [MmHhLl]/([M]^m[H]^h[L]^l), were calculated by fitting the potentiometric titration data with Hyperquad 2008 [26]. The metal hydrolysis constants were determined under the defined experimental conditions (I = 0.1 M KCl, 50% w/w DMSO/H2O, T = 25.0 ± 0.1 °C) and the following values of stability constants were included in the fitting of experimental data towards the equilibrium models related to the Cu^2+/L and Zn^2+/L systems: log βCu2H−2 = −9.99; log βZnH−2 = −14.79, log βZnH−3 = −23.48. Species distribution curves were plotted with the Hyss program.

[4] = Zn(II) chelation by potentiometry; format: physicochemical; details: for pH at which metal complexation starts, Zn(II): formation of MHL species, CL = 6.7 × 10^−4 M, 1:2 M(II)/L; for pZn (pM = −log[M]): pH 7.4, CL/CM = 10, CM = 10^−6 M
Description: as §6, §7, §8

[5] = global formation constant, 50% w/w DMSO/water, I = 0.1 M KCl, 25.0 °C

T1 sequence (O42275 24-633): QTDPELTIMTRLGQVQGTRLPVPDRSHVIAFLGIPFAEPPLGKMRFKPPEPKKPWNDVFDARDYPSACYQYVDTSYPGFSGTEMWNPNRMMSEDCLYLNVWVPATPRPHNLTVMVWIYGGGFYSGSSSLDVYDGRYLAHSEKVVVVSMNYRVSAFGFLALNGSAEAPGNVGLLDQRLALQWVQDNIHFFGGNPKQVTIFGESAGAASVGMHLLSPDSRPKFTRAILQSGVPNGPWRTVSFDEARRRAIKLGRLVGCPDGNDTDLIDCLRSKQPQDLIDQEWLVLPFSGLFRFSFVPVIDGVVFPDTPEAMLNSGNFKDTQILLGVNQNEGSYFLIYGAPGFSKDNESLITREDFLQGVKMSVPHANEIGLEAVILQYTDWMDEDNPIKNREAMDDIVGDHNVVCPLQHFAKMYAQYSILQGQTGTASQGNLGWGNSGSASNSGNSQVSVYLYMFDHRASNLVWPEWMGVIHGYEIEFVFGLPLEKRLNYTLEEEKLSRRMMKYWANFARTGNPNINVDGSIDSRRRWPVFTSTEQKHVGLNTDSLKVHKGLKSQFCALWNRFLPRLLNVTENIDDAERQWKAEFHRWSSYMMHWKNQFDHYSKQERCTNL

O=C(NCC1CCN(Cc2ccccc2)CC1)c1ccc2[nH]c(-c3cc(F)ccc3O)nc2c1 [Compound 6, N-((1-Benzylpiperidin-4-yl)methyl)-2-(2-hydroxy-5-fluorophenyl)-1H-benzo[d]imidazole-5-carboxamide]
IC50 [1]: 1.67 ± 0.05 µM
inhibition at 40 µM (Aβ1–42): 51.2%
inhibition at 40 µM (Aβ1–42 with Cu(II)): 61%

Oc1ccccc1 [phenol]
log K (protonation constant) ([2]; standard group): 9.98

O=[N+]([O-])c1ccc(O)cc1 [4-nitrophenol]
log K (protonation constant) ([2]; standard group): 7.15

O=C(NCCN1CCN(Cc2ccccc2[N+](=O)[O-])CC1)c1ccc2nc(-c3ccccc3O)[nH]c2c1 [Compound 11, 2-(2-Hydroxyphenyl)-N-(2-(4-(2-nitrobenzyl)piperazin-1-yl)ethyl)-1H-benzo[d]imidazole-6-carboxamide]
IC50 [1]: 20 ± 1 µM
inhibition at 40 µM (Aβ1–42): 22.7%
inhibition at 40 µM (Aβ1–42 with Cu(II)): 43.5%

O=C(NCCN1CCN(Cc2ccccc2)CC1)c1ccc2[nH]c(-c3cc(F)ccc3O)nc2c1 [Compound 8, N-(2-(4-Benzylpiperazin-1-yl)ethyl)-2-(2-hydroxy-5-fluorophenyl)-1H-benzo[d]imidazole-5-carboxamide]
IC50 [1]: 4.3 ± 0.3 µM
inhibition at 40 µM (Aβ1–42): 50.6%
inhibition at 40 µM (Aβ1–42 with Cu(II)): 55.2%

O=C(NCCN1CCN(Cc2ccccn2)CC1)c1ccc2nc(-c3ccccc3O)[nH]c2c1 [Compound 12, 2-(2-Hydroxyphenyl)-N-(2-(4-(pyridin-2-ylmethyl)piperazin-1-yl)ethyl)-1H-benzo[d]imidazole-6-carboxamide]
IC50 [1]: > 100 µM
inhibition at 40 µM (Aβ1–42): 30.1%
inhibition at 40 µM (Aβ1–42 with Cu(II)): 44.4%
pH at which metal complexation starts, Cu(II) [3]: around 2
log βCumHhLl (1–12), CuH-1L2 [3, 5]: 7.88(7)
log βCumHhLl (101), CuL [3, 5]: 11.18(5)
log βCumHhLl (102), CuL2 [3, 5]: 17.14(7)
log βCumHhLl (111), CuHL [3, 5]: 16.26(3)
pCu (pM = −log[M]) [3]: 10.4
Kd [3]: 0.000365 µM
pH at which metal complexation starts, Zn(II) [4]: 3.5–4
log βZnmHhLl (1–12), ZnH-1L2 [4, 5]: 2.07(7)
log βZnmHhLl (101), ZnL [4, 5]: 6.26(5)
log βZnmHhLl (102), ZnL2 [4, 5]: 10.54(5)
log βZnmHhLl (111), ZnHL [4, 5]: 12.58(4)
pZn (pM = −log[M]) [4]: 6.3

c1ccncc1 [pyridine]
log K (protonation constant) ([2]; in water): 5.24

O=C(NCC1CCCN(Cc2ccccc2)C1)c1ccc2nc(-c3ccccc3O)[nH]c2c1 (stereo not drawn) [Compound 3, N-((1-Benzylpiperidin-3-yl)methyl)-2-(2-hydroxyphenyl)-1H-benzo[d]imidazole-6-carboxamide]
IC50 [1]: 5 ± 0.5 µM
inhibition at 40 µM (Aβ1–42): 71.4%
inhibition at 40 µM (Aβ1–42 with Cu(II)): 81.8%

c1c[nH]cn1 [imidazole]
log K (protonation constant) ([2]; standard group): 6.95

O=C(NCCN1CCN(Cc2ccccc2)CC1)c1ccc2[nH]c(-c3cc([N+](=O)[O-])ccc3O)nc2c1 [Compound 7, N-(2-(4-Benzylpiperazin-1-yl)ethyl)-2-(2-hydroxy-5-nitrophenyl)-1H-benzo[d]imidazole-5-carboxamide]
IC50 [1]: 21 ± 3 µM
inhibition at 40 µM (Aβ1–42): 57.6%
inhibition at 40 µM (Aβ1–42 with Cu(II)): 71.4%
pH at which metal complexation starts, Cu(II) [3]: around 2
log βCumHhLl (1–12), CuH-1L2 [3, 5]: 7.30(9)
log βCumHhLl (102), CuL2 [3, 5]: 15.27(8)
log βCumHhLl (111), CuHL [3, 5]: 14.23(5)
log βCumHhLl (122), CuH2L2 [3, 5]: 26.90(7)
pCu (pM = −log[M]) [3]: 10.9
Kd [3]: 0.08 µM
pH at which metal complexation starts, Zn(II) [4]: 3.5–4
log βZnmHhLl (101), ZnL [4, 5]: 4.98(8)
log βZnmHhLl (102), ZnL2 [4, 5]: 10.22(8)
log βZnmHhLl (111), ZnHL [4, 5]: 10.40(8)
log βZnmHhLl (122), ZnH2L2 [4, 5]: 21.92(7)
pZn (pM = −log[M]) [4]: 6.5

O=C(NCC1CCCCN1Cc1ccccc1)c1ccc2nc(-c3ccccc3O)[nH]c2c1 (stereo not drawn) [Compound 4, N-((1-Benzylpiperidin-2-yl)methyl)-2-(2-hydroxyphenyl)-1H-benzo[d]imidazole-6-carboxamide]
IC50 [1]: 14 ± 1 µM
inhibition at 20 µM (Aβ1–42; inhibitor 20 µM): 47.6%
inhibition at 20 µM (Aβ1–42 with Cu(II); inhibitor 20 µM): 55.9%

From paper PMC7070709, “Design, Synthesis, and In Vitro Evaluation of Hydroxybenzimidazole-Donepezil Analogues as Multitarget-Directed Ligands for the Treatment of Alzheimer’s Disease” (Molecules, 2020)
